Usually Ki stands for a dissociation constant, usually derived from enzyme kinetics or from competition with a known ligand.

In this assay the target is T1, Purine nucleoside phosphorylase (Homo sapiens, UniProt P00491).
T1 sequence (P00491 whole entry): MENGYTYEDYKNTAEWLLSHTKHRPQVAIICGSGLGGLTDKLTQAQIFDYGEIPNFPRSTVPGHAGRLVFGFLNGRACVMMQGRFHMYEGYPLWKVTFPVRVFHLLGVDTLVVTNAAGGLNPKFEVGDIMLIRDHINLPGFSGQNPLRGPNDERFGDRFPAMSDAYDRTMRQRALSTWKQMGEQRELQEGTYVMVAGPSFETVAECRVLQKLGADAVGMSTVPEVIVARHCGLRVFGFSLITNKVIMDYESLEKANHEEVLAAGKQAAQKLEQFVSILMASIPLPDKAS
Description: Inhibition of human PNP by xanthine-oxidase coupled assay
In turn, `Nc1nc2c(CNC(CO)CO)c[nH]c2c(=O)[nH]1` displayed an inhibitory constant (Ki) of 2.1 pM. For `Nc1nc2c(CN[C@H](CO)[C@H](O)CO)c[nH]c2c(=O)[nH]1` the value was 3.4 pM; for `O=c1[nH]cnc2c(CN3C[C@H](CO)[C@@H](O)C3)c[nH]c12` [ULODESINE], 8.5 pM.

For the origin of these results see ChEMBL document CHEMBL1140943, “Third-generation immucillins: syntheses and bioactivities of acyclic immucillin inhibitors of human purine nucleoside phosphorylase” (J Med Chem, 2009).
